Results taken from US20050090563A1, “Method and compositions for inhibiting the scent tracking ability of mosquitoes and biting midges” (Bedoukian Research, Inc., priority 2003, published 2005).

System: Aedes aegypti mosquitoes
Test: Field test of mosquito landings on human subjects near candles containing the test substance
Assay type: in vivo
Conditions: for Four Day Totals of Mosquito Landings On Subjects: field test, Connecticut, August 2003, candles at four corners of 7 ft x 7 ft squares, 18 inches above ground, four human subjects, landings counted on arms, legs and torso, control without substance 152
Description: In a test of the inhibiting ability of the (S)-(+)-linalool chiral isomer compound of this invention, the following field test was conducted. The study was conducted in August 2003 on a site in Connecticut. Candles containing the test compound or no compound were placed 18 inches above the ground at the four corners of 7 ft×7 ft squares, with the squares being placed 50 ft apart. Four subjects (persons) were employed in the tests. On a given day, the subjects were rotated through all four positions of a square. Each day, treatments rotated to the next position, so that each treatment was tested at each site. The landing of mosquitoes on the subject were counted. Landing counts were taken from the arms, legs and torso of a test subject.

| Structure (SMILES) | Four Day Totals of Mosquito Landings On Subjects | Mosquito landings relative to linalool (same candle field test, four day totals) |
| --- | --- | --- |
| C=CC(C)(O)CCC=C(C)C (stereo not drawn) [Linalool: 35% (+), 65% (−), Linalool, reference compound] | 82 | – |
| C=CC(C)(O)CCC=C(C)C (stereo not drawn) [Linalool: 85% (+), 15% (−), Linalool] | 42 | 73.5% |
